# Columns and labels:
# Histamine H3 receptor = Histamine H3 receptor (Cavia porcellus, UniProt Q9JI35); test: Binding affinity against H3 receptor in guinea pig brain using [3H]N-alpha-methyl histamine as radioligand
# [1] = target: Histamine H1 receptor (Rattus norvegicus) (UniProt P31390); test: Ability to displace [3H]pyrilamine from histamine H1 receptor in male Sprague-Dawley rat brain membranes at 1 ug/mL; assay type: tissue-based; settings: Membrane
# Histamine H1 receptor = Histamine H1 receptor (Rattus norvegicus, UniProt P31390); test: Ability to displace [3H]pyrilamine from histamine H1 receptor in male Sprague-Dawley rat brain membranes; assay type: tissue-based, Membrane
# Sequence of Histamine H1 receptor (P31390 whole entry): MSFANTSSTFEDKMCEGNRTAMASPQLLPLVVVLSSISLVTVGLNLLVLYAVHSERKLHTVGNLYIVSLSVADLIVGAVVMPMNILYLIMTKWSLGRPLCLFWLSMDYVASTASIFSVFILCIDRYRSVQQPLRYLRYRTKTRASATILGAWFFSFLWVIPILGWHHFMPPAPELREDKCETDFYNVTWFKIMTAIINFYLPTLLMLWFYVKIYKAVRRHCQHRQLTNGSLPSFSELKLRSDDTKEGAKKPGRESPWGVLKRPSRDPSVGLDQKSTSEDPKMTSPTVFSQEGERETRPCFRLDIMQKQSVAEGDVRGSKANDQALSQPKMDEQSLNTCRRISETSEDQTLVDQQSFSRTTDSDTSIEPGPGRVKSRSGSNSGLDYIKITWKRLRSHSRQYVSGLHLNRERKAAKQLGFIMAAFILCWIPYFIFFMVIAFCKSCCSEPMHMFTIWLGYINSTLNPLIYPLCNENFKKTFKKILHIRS
# Sequence of Histamine H3 receptor (Q9JI35 whole entry): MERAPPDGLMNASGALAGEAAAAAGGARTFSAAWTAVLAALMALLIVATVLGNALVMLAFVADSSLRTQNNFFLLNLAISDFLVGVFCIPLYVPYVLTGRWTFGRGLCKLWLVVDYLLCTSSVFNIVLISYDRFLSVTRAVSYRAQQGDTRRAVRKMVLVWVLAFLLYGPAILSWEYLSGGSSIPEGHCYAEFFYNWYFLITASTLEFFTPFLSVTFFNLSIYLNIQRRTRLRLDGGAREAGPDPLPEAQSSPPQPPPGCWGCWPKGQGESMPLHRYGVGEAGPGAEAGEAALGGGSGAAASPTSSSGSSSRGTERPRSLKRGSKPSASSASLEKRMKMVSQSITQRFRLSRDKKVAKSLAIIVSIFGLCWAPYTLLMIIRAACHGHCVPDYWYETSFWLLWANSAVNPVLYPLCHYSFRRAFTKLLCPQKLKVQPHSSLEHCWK
# Sequence of Histamine H1 receptor (Rattus norvegicus) (P31390 whole entry): as the sequence (P31390 whole entry) above
smiles,measurement,setting,value
O=C(CC(c1ccc(Cl)cc1)c1ccccn1)NCCCCc1c[nH]cn1 (stereo not given),Ki,Histamine H3 receptor,1 nM
same,inhibition,[1],< 50%
CN(CCc1c[nH]cn1)C(=O)CC(c1ccc(Cl)cc1)c1ccccn1 (stereo not given),inhibition,[1],< 50%
O=C(CCc1c[nH]cn1)NCCC(c1ccc(Cl)cc1)c1ccccn1 (stereo not given),inhibition,[1],< 50%
O=C(CC(c1ccccn1)c1ccccn1)NCCCCc1c[nH]cn1,Ki,Histamine H3 receptor,1 nM
same,inhibition,[1],< 50%
CN(CCC(c1ccc(Cl)cc1)c1ccccn1)C(=O)CCc1c[nH]cn1 (stereo not given),inhibition,[1],< 50%
O=C(CC(c1ccc(Cl)cc1)c1ccccn1)NCCc1c[nH]cn1 (stereo not given),inhibition,[1],< 50%
N=C(CC(c1ccc(Cl)cc1)c1ccccn1)NCCc1c[nH]cn1 (stereo not given),inhibition,[1],< 50%
c1ccc(C(CCNCCCCc2c[nH]cn2)c2ccccn2)nc1,Ki,Histamine H3 receptor,4 nM
same,inhibition,[1],< 50%
O=C(NCCCCc1cnc[nH]1)NCCC(c1ccc(Cl)cc1)c1ccccn1 (stereo not given),Ki,Histamine H3 receptor,23 nM
same,Ki,Histamine H1 receptor,920 nM
Clc1ccc(C(CCNCCCc2c[nH]cn2)c2ccccn2)cc1 (stereo not given),inhibition,[1],< 50%
CN(CCCCc1c[nH]cn1)C(=O)CC(c1ccc(Cl)cc1)c1ccccn1 (stereo not given),Ki,Histamine H3 receptor,7 nM
same,inhibition,[1],< 50%
Clc1ccc(C(CCNCCCCCc2cnc[nH]2)c2ccccn2)cc1 (stereo not given),Ki,Histamine H3 receptor,33 nM
same,Ki,Histamine H1 receptor,39 nM
CN(CCCCCc1c[nH]cn1)CCC(c1ccc(Cl)cc1)c1ccccn1 (stereo not given),Ki,Histamine H3 receptor,50 nM
same,Ki,Histamine H1 receptor,6 nM

# — ChEMBL document CHEMBL1146612 (Bioorg Med Chem Lett, 2003)
